From US10155754B2, “Substituted 2-imino-1,3-thiazolidin-4-ones as N-arachidonoylethanolamine cellular uptake inhibitors” (UNIVERSITAT BERN, priority 2014, dated 2018) come the findings set out here.

pIC50: −log10 of the molar value.

Experiment [1] deals with T1, FAAH (Homo sapiens, UniProt O00519).
T1 construct: endogenous in cells; host or cells: U937 cell homogenate
T1 sequence (O00519 1-579): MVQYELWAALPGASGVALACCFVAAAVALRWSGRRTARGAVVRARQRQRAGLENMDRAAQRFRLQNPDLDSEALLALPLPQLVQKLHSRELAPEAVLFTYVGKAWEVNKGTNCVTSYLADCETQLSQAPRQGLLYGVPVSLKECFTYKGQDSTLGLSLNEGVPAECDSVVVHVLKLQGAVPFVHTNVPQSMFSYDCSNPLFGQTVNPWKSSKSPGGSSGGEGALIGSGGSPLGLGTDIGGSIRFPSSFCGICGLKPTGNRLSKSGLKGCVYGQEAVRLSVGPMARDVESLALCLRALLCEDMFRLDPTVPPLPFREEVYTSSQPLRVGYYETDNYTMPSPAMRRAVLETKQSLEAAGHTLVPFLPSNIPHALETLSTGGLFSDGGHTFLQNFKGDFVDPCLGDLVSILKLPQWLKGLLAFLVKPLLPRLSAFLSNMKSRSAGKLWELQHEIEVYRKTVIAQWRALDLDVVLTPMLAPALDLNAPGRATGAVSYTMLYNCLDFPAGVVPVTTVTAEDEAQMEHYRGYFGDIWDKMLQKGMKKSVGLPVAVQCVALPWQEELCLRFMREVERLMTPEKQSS
Description: FAAH activity: hydrolysis of [3H]-AEA in U937 cell homogenates. Format: biochemical. As to conditions: [3H]-AEA hydrolysis, final 100 nM AEA, read-out: FAAH inhibition IC50. As to the method: Hydrolysis of [^3H]-AEA by FAAH was determined as previously described in cell homogenates of U937 cells (0.18 mg protein) (Omeir et al., 1999, Biochem Biophys Res Commun, 264, 316-20; Mor et al., 2004, J Med Chem, 47, 4998-5008). Protein amounts of cell homogenates corresponded to 0.5×10^6 cells (U937), to assure best possible comparability of IC50 values as used for the AEA cellular uptake assays. URB597 was used as positive control. Protein quantification was performed using a BCA assay (Thermo Scientific). Enzyme activity was assessed by addition of vehicle or compounds in 10 μL DMSO to 490 μL homogenate in 10 mM Tris HCl, 1 mM EDTA, 0.1% (w/v) BSA fatty acid free, pH=8 and incubation for 15 min at 37° C. After, a mixture of AEA plus [ethanolamine-1-^3H]-AEA (0.5 nM) at final 100 nM was added to the homogenates and incubated for 15 min at 37° C. The reaction was stopped by addition of 1 mL ice-cold CHCl3:MeOH (1:1) followed by vigorous vortexing. Phase separation was achieved by centrifugation at 10'000×g at 4° C. for 10 min. Radioactivity of the separated aqueous phase (upper phase) containing [^3H-ethanolamine] or [^3H-glycerol] was measured by liquid scintillation counting on a Tri-Carb 2100 TR liquid scintillation analyzer after addition of 3.5 mL Ultima Gold scintillation cocktail (PerkinElmer Life Sciences). Results are expressed as hydrolysis of tritium substrate in percent of vehicle treated control. IC50 values were calculated by GraphPad®. Data are reported as means of n=3 independent experiments performed in triplicates.

For experiment [2], the system named is AEA cellular uptake (U937 cells). Briefly: [3H]-AEA cellular uptake inhibition in U937 cells. Format: cell-based. As to conditions: Homo sapiens, U-937, U937 cells, final 100 nM AEA with 0.5 nM [3H]-AEA, 15 min at 37° C.; read-out: AEA uptake IC50. A digest of the protocol:
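U937 cells (0.5×10^6 per sample) pre-incubated with compound (100 pM–100 μM, triplicates) for 15 min at 37 °C, then given 100 nM AEA including 0.5 nM [3H]-AEA for 15 min. Filtration, washing and scintillation counting of cell-associated radioactivity; IC50 by four-parameter nonlinear regression.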

As for `CC(C)CN1C(=O)/C(=C/c2ccc3c(c2)OCCO3)S/C1=N\c1ccc(F)cc1` [24_B_X, (2Z,5Z)-2-(4-fluorophenylimino)-5-((2,3-dihydrobenzo[b][1,4]dioxin-6-yl)methylene)-3-isobutylthiazolidin-4-one], the pIC50 in experiment [1] was less than 4.00; in experiment [2] it was 6.79.
`O=C1/C(=C/c2ccc3c(c2)OCCO3)S/C(=N\Cc2ccccc2)N1c1ccccc1` [24_C_N, (2Z,5Z)-2-(benzylimino)-5-((2,3-dihydrobenzo[b][1,4]dioxin-6-yl)methylene)-3-phenylthiazolidin-4-one]: the pIC50 in experiment [1] is 5.80; in experiment [2], 6.77.
In the same order, the values of `COc1ccc(/N=C2\S/C(=C\c3ccc4c(c3)OCCO4)C(=O)N2c2ccccc2)cc1` [24_F_N, (2Z,5Z)-2-(4-methoxyphenylimino)-5-((2,3-dihydrobenzo[b][1,4]dioxin-6-yl)methylene)-3-phenylthiazolidin-4-one] are less than 4.00 and 6.03.
Regarding `Cc1ccc(/N=C2\S/C(=C\c3ccc4[nH]ccc4c3)C(=O)N2c2ccc(C)cc2)cc1` [03_A_A, (2Z,5Z)-5-((1H-indol-5-yl)methylene)-2-(p-tolylimino)-3-p-tolylthiazolidin-4-one], the results for the pIC50 in experiment [1] and in experiment [2] were less than 4.00 and 6.50, respectively.
For `Cc1ccc(/N=C2\S/C(=C\c3ccc4ncsc4c3)C(=O)N2C2CCCCC2)cc1` [32_A_I, (2Z,5Z)-2-(p-tolylimino)-5-((benzo[d]thiazol-6-yl)methylene)-3-cyclohexylthiazolidin-4-one], in that order: less than 4.00 and 6.47.
In the same order, the values of `CC(C)CN1C(=O)/C(=C/c2ccc3c(c2)OCCO3)S/C1=N\c1ccccc1` [24_N_X, (2Z,5Z)-5-((2,3-dihydrobenzo[b][1,4]dioxin-6-yl)methylene)-3-isobutyl-2-(phenylimino)thiazolidin-4-one] are less than 4.00 and 6.76.
In the same order, the values of `O=C1/C(=C/c2ccc3[nH]ccc3c2)S/C(=N\Cc2ccc(F)cc2)N1c1ccccc1` [03_P_N, (2Z,5Z)-5-((1H-indol-5-yl)methylene)-2-(4-fluorobenzylimino)-3-phenylthiazolidin-4-one] are greater than 5.00 and 6.39.
With `COc1ccc(/N=C2\S/C(=C\c3ccc4[nH]cnc4c3)C(=O)N2c2ccccc2)cc1` [04_F_N, (2Z,5Z)-5-((1H-benzo[d]imidazol-5-yl)methylene)-2-(4-methoxyphenylimino)-3-phenylthiazolidin-4-one], the figures for the pIC50 in experiment [1] and in experiment [2] were less than 4.00 and 6.79, respectively.
`CC(C)CN1C(=O)/C(=C/c2ccc3c(c2)OCCO3)S/C1=N\Cc1ccc(F)cc1` [24_P_X, (2Z,5Z)-2-(4-fluorobenzylimino)-5-((2,3-dihydrobenzo[b][1,4]dioxin-6-yl)methylene)-3-isobutylthiazolidin-4-one]: the pIC50 was 5.58 in experiment [1] and 6.29 in experiment [2].
For `Cc1ccc(N2C(=O)/C(=C/c3ccc4c(c3)OCCO4)S/C2=N\Cc2ccc(F)cc2)cc1` [24_P_A, (2Z,5Z)-2-(4-fluorobenzylimino)-5-((2,3-dihydrobenzo[b][1,4]dioxin-6-yl)methylene)-3-p-tolylthiazolidin-4-one], in that order: 5.82 and 6.75.
`Cc1ccc(/N=C2\S/C(=C\c3ccc4[nH]cnc4c3)C(=O)N2c2ccc(C)cc2)cc1` [04_A_A, (2Z,5Z)-5-((1H-benzo[d]imidazol-5-yl)methylene)-2-(p-tolylimino)-3-p-tolylthiazolidin-4-one]: the results for the pIC50 in experiment [1] and in experiment [2] were less than 4.00 and 6.41, respectively.
For `CC(C)CN1C(=O)/C(=C/c2ccc3[nH]ccc3c2)S/C1=N\c1ccc(F)cc1` [03_B_X, (2Z,5Z)-5-((1H-indol-5-yl)methylene)-2-(4-fluorophenylimino)-3-isobutylthiazolidin-4-one], in that order: less than 4.00 and 6.32.
As to `COc1ccc(/N=C2\S/C(=C\c3ccc(CO)cc3)C(=O)N2c2ccccc2)cc1` [22_F_N, (2Z,5Z)-5-(4-(hydroxymethyl)benzylidene)-2-(4-methoxyphenylimino)-3-phenylthiazolidin-4-one], the results for the negative-log IC50 (pIC50) in experiment [1] and in experiment [2] were less than 4.00 and 6.87, respectively.
In the same order, the values of `Cc1ccc(/N=C2\S/C(=C\c3ccc(CO)cc3)C(=O)N2c2ccc(C)cc2)cc1` [22_A_A, (2Z,5Z)-5-(4-(hydroxymethyl)benzylidene)-2-(p-tolylimino)-3-p-tolylthiazolidin-4-one] are less than 4.00 and 6.47.
For `Cc1ccc(/N=C2\S/C(=C\c3ccc4c(cnn4C)c3)C(=O)N2C2CCCCC2)cc1` [28_A_I, (2Z,5Z)-2-(p-tolylimino)-3-cyclohexyl-5-((1-methyl-1H-indazol-5-yl)methylene)thiazolidin-4-one], in that order: less than 4.00 and 6.41.
For `COc1ccc(C/N=C2\S/C(=C\c3ccc4c(c3)OCCO4)C(=O)N2c2ccccc2)cc1` [24_Q_N, (2Z,5Z)-2-(4-methoxybenzylimino)-5-((2,3-dihydrobenzo[b][1,4]dioxin-7-yl)methylene)-3-phenylthiazolidin-4-one], in that order: 6.36 and 6.43.
`O=C1/C(=C/c2ccc3c(c2)OCCO3)S/C(=N\c2ccccc2)N1c1ccc(F)cc1` [24_N_B, (2Z,5Z)-3-(4-fluorophenyl)-5-((2,3-dihydrobenzo[b][1,4]dioxin-6-yl)methylene)-2-(phenylimino)thiazolidin-4-one]: the pIC50 in experiment [1] was less than 4.00; in experiment [2] it was 6.18.
For `COc1ccc(C/N=C2\S/C(=C\c3ccc4c(c3)OCCO4)C(=O)N2c2ccc(Cl)cc2)cc1` [24_Q_L, (2Z,5Z)-2-(4-methoxybenzylimino)-3-(4-chlorophenyl)-5-((2,3-dihydrobenzo[b][1,4]dioxin-6-yl)methylene)thiazolidin-4-one], in that order: 6.09 and 7.07.
Consider `COCc1cccc(/C=C2\S/C(=N\Cc3ccc(OC)cc3)N(c3ccccc3)C2=O)c1` [15_Q_N, (2Z,5Z)-5-(3-(methoxymethyl)benzylidene)-2-(4-methoxybenzylimino)-3-phenylthiazolidin-4-one], for which the pIC50 in experiment [1] was greater than 5.00; in experiment [2], 6.43.
For `O=C1/C(=C/c2ccc3[nH]ccc3c2)S/C(=N\Cc2ccccc2Cl)N1c1ccccc1` [03_T_N, (2Z,5Z)-5-((1H-indol-5-yl)methylene)-2-(2-chlorobenzylimino)-3-phenylthiazolidin-4-one], in that order: less than 4.00 and 6.58.
With `O=C1/C(=C/c2ccc3c(c2)OCCO3)S/C(=N\c2ccc(F)cc2)N1C1CCCCC1` [24_B_I, (2Z,5Z)-2-(4-fluorophenylimino)-3-cyclohexyl-5-((2,3-dihydrobenzo[b][1,4]dioxin-6-yl)methylene)thiazolidin-4-one], the pIC50 in experiment [1] is less than 4.00; in experiment [2] it was 6.85.
For `Cc1ccc(N2C(=O)/C(=C/c3ccc4c(c3)OCCO4)S/C2=N\c2ccccc2)cc1` [24_N_A, (2Z,5Z)-5-((2,3-dihydrobenzo[b][1,4]dioxin-6-yl)methylene)-2-(phenylimino)-3-p-tolylthiazolidin-4-one], in that order: less than 4.00 and 6.48.
On to `Cc1ccc(/N=C2\S/C(=C\c3ccc4[nH]cnc4c3)C(=O)N2CC(C)C)cc1` [04_A_X, (2Z,5Z)-5-((1H-benzo[d]imidazol-5-yl)methylene)-2-(p-tolylimino)-3-isobutylthiazolidin-4-one], for which the values for the negative logarithm of the IC50 (pIC50) in experiment [1] and in experiment [2] were 4.84 and 6.81, respectively.
For `CC(C)CN1C(=O)/C(=C/c2ccc(CO)cc2)S/C1=N\c1ccc(F)cc1` [22_B_X, (2Z,5Z)-5-(4-(hydroxymethyl)benzylidene)-2-(4-fluorophenylimino)-3-isobutylthiazolidin-4-one], in that order: 4.72 and 6.90.

Usually pIC50 stands for the IC50 on a negative log10 scale, so that one unit is a factor of ten.
